Entries after “also recorded” stand apart in the source; their conditions may differ. Where two headings read alike, the source gives them in different places. Positions of bridges follow the written chain, without caps; N, C: chain ends. No end group written: not given here.
Columns and labels:
[1] = tested on: ASIC3; conditions: cited from earlier work; for potency and specificity of ASIC3 inhibition (in words): statement on the majority of currently known inhibitors of ASIC3
From the text: Acid-sensing ion channels (ASICs) are proton-gated sodium channels present in the central and peripheral nervous system of chordates. ASIC3 is highly expressed in sensory neurons and plays an important role in inflammatory and ischemic pain. Thus, specific inhibitors of ASIC3 have the potential to be developed as novel analgesics. […] However, the mechanism of action of APETx2 and the molecular basis for its interaction with ASIC3 is not known. In order to assis ... || The pharmacology of ASIC3 is still relatively poorly understood when compared with voltage-gated sodium (NaV) and calcium (CaV) channels. Thus, the characterization of, and development of structure-activity relationships for, selective ASIC3 modulators will be useful for characterizing the function of ASIC3 under both normal and pathophysiological conditions.

[2] = biological target: T1, rat ASIC3 (Rattus norvegicus, UniProt O35240); assay: Inhibition of homomeric rat ASIC3 currents in Xenopus oocytes (two-electrode voltage clamp); format: cell-based; conditions: rat ASIC3 in Xenopus laevis oocytes; pH drop from 7.4 to 6.0 every minute; -60 mV; RT (18–21 °C); ND96 with 0.1% BSA; pH 6 stimulus buffered with MES
T1 construct: expressed in transfected cells; host or cells: Xenopus laevis oocytes (cRNA injection)
T1 sequence (O35240 1-533): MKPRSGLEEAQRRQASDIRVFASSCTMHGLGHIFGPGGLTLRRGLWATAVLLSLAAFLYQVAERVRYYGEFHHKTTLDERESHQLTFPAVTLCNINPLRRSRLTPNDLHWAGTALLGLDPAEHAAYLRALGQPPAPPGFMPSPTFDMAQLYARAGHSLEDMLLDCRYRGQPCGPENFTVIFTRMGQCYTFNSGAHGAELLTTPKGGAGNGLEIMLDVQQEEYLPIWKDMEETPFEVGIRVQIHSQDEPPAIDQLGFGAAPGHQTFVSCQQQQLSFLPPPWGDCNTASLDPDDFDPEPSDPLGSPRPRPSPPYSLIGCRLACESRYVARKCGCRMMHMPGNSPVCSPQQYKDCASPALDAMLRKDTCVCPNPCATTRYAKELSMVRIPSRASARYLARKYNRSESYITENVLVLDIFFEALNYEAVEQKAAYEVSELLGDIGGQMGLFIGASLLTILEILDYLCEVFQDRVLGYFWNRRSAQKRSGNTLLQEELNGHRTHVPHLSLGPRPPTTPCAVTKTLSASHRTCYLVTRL
Description: The efficacy of rAPETx2 was tested on rat ASIC3 expressed in Xenopus laevis oocytes.
Figure 4 (A) Representative current traces comparing the concentration-dependent inhibition of rat ASIC3 (expressed in Xenopus oocytes) by synthetic (s) and recombinant (r) APETx2. (B) Concentration-effect curves for sAPETx2 and an rAPETx2–F15A mutant.
Oocytes were obtained from Xenopus laevis and defolliculatd by treatment with collagenase (Sigma type I). Rat ASIC3 cRNA was synthesised using an mMessage mMachine cRNA transcription kit and healthy stage V–VI oocytes injected with 4 ng rat ASIC3 cRNA (40 nL of 100 ng/μL). Oocytes were kept at 17 °C in ND96 solution (96 mM NaCl, 2 mM KCl, 1 mM CaCl2, 2 mM MgCl2, 5 mM HEPES, 5 mM pyruvic acid, 50 µg/mL gentamicin, 2.5% fetal horse serum, pH 7.4). Membrane currents were recorded 2–6 days post cRNA injection under voltage-clamp (Axoclamp 900A amplifier, Molecular Devices, Sunnyvale, CA, USA) using two standard glass microelectrodes with resistances of 0.5–1 MΩ when filled with 3 M KCl solution. Data acquisition and analysis were performed using pCLAMP software (Version 10, Molecular Devices, Sunnyvale, CA, USA). Oocytes were clamped at −60 mV with data sampled at 1000 Hz and filtered at […]. All experiments were performed at RT (18–21 °C) in ND96 solution containing 0.1% fatty acid free-bovine serum albumin (BSA). […]

[3] = tested on: ASIC3-containing channels (ASIC3, ASIC3/1a, ASIC3/1b, ASIC3/2b); conditions: cited from earlier work
From the text: (§1) The pharmacology of ASIC3 is still relatively poorly understood when compared with voltage-gated sodium (NaV) and calcium (CaV) channels. Thus, the characterization of, and development of structure-activity relationships for, selective ASIC3 modulators will be useful for characterizing the function of ASIC3 under both normal and pathophysiological conditions. […] The majority of currently known inhibitors of ASIC3 (e.g., gadolinium, a ...

[4] = tested on: rodent pain models; conditions: cited from earlier work
From the text: as §1

[5] = tested on: NaV1.8; conditions: cited from earlier work
From the text: The pharmacology of ASIC3 is still relatively poorly understood when compared with voltage-gated sodium (NaV) and calcium (CaV) channels. Thus, the characterization of, and development of structure-activity relationships for, selective ASIC3 modulators will be useful for characterizing the function of ASIC3 under both normal and pathophysiological conditions.

[6] = tested on: acid-induced and post-operative pain in rats; parameters: method as in PMID 18923424, PMID 21508231, PMID 20860671; conditions: cited from earlier work

Cc1nc(NC(=N)N)nc2ccccc12 [GMQ, 2-guanidine-4-methylquinazoline]
ASIC3 agonism (in words) ([1]; normal pH): persistent activation at normal pH

[Gd] [gadolinium]
potency and specificity of ASIC3 inhibition (in words) [1]: neither potent nor specific

GTACSCGNSKGIYWFYRPSCPTDRGYTGSCRYFLGTCCTPAD (disulfide 4-37, 6-30, 20-38) [rAPETx2]
IC50 [2]: 80 nM

APETx2
potency and selectivity for ASIC3 (in words) ([1]; ASIC3 / ASIC3-containing channels): most potent and selective inhibitor of ASIC3-containing channels; also recorded: only known potent and selective inhibitor of ASIC3; also recorded: specific peptide blocker of ASIC3 | IC50 ([3]; homomeric ASIC3, read-out: IC50 for homomeric ASIC3): ~60 nM | IC50 ([3]; upper end of range, depending on the subunit composition of the channel, read-out: IC50 for ASIC3-containing channels (upper end)): ≤ 2000 nM | analgesic effect in rodent pain models (in words) [4]: analgesic in rodent pain models | inhibition of NaV1.8 (in words) [5]: inhibits NaV 1.8 | potency on NaV1.8 relative to ASIC3 (in words) ([5]; compared with ASIC3): lower potency than for ASIC3 | effect on acid-induced and post-operative pain (in words) [6]: abolish acid-induced and post-operative pain in rats

N=C(N)NC(=O)c1nc(Cl)c(N)nc1N [amiloride]
potency and specificity of ASIC3 inhibition (in words) [1]: neither potent nor specific

— paper PMC3407934, “Functional Expression in Escherichia coli of the Disulfide-Rich Sea Anemone Peptide APETx2, a Potent Blocker of Acid-Sensing Ion Channel 3” (Marine Drugs, 2012)
